Reference: PMC5373622, “Screening for AMPA receptor auxiliary subunit specific modulators” (PLoS ONE, 2017)
Where “and” joins values, the source holds several entries; their conditions need not be identical. Identical values can stand only once. Like-named read-outs stand apart in the source and are kept apart here.

Columns and labels:
[1] = biological target: GluA2flip(R)-stargazin (A2R-stg TetON HEK293 cells) (Homo sapiens, UniProt P42262, Q607R); assay: Voltage-sensitive dye (VSD) assay (primary screen, counter-screen, CRC) on A2R-stg cells; conditions: for CMPDmaxmin: max-min 8-100 s, only compound present; for BaselineReturn: max 250-255 s minus min 0-5 s; for Glumaxmin: max-min normalized value 301-380 s; for Glumaxmin / GluSlope: compound and glutamate present; for GluSlope: slope 310-315 s
GluA2flip(R)-stargazin (A2R-stg TetON HEK293 cells), sequence (P42262 25-883 isoform P42262-2 Q607R limits assumed): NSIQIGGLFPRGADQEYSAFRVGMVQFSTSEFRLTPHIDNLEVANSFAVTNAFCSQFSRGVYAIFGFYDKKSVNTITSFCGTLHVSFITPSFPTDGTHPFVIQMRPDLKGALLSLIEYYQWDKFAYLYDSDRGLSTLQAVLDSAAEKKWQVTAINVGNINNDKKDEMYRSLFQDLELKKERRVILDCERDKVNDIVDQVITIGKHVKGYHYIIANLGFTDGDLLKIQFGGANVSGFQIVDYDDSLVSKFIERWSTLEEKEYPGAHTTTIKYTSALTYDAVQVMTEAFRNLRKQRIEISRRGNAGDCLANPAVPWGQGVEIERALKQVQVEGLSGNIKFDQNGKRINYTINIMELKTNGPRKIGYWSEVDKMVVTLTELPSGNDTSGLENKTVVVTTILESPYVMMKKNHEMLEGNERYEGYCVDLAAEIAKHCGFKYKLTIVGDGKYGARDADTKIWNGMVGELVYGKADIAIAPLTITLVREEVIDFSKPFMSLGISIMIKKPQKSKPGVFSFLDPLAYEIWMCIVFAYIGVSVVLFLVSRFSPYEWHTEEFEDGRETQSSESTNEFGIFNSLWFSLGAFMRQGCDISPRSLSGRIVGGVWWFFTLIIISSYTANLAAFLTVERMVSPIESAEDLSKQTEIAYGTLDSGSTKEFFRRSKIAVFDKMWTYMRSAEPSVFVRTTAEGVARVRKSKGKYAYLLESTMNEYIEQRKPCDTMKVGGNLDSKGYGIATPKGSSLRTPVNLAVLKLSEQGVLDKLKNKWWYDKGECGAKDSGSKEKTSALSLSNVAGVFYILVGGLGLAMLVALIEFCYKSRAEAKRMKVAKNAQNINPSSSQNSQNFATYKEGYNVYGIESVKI
GluA2flip(R)-stargazin (A2R-stg TetON HEK293 cells), sequence (Q9Y698 whole entry partner): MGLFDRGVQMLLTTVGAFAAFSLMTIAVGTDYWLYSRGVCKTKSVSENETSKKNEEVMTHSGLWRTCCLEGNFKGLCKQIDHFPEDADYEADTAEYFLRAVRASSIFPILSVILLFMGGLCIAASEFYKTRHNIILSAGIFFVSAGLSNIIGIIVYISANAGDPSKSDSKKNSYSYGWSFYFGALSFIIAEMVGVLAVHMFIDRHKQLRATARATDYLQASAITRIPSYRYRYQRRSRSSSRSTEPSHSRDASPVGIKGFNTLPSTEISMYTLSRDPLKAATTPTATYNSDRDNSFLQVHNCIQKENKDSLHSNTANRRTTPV
Procedure: Cell lines used in the VSD assays were TetON HEK293 cells. […] We used GluA2flip(R) TetON HEK cell clone #4 that doxycycline (DOX) dependently expresses GluA2flip(R) (A2R). The A2R cells were used as the base cell line to derive cell lines that co-express auxiliary subunits.
(§1) Greiner 384-pp round-bottom plates containing glutamate for the second add were dispensed by hand using a multi-channel pipet at 5X final concentration. A2R-stg cells were plated in 384-well BD PureCoat amine-coated plates (Corning Life Sciences) at 16k cells/well in DMEM medium supplemented with 10% heat-inactivated FBS and 100U/mL PenStrep antibiotic. […] Cells were incubated overnight (O/N) and washed 4 times in HBSS containing 20 mM HEPES, pH 7.4, on an ELX405CW liquid aspirator and dispenser (BioTek). Buffer was left in the wells and an equal amount of 2X FLIPR dye solution was added and incubated on the cells at room temperature for 45 min. Fluorescence signal was collected at 1 Hz using Ex. 480±20 nm/Em. 540±40 nm on a Hamamatsu Functional Drug Screening System 6000 (FDSS). Baseline signal was collected for 10 seconds followed by addition of 10 μl of 5X compound for a final concentration of 10 μM.
Hits were selected from this initial screen using 4 different criteria, which we termed CMPDslope, CMPDmaxmin, GLUslope, and GLUmaxmin. […] GLUslope is the fitted slope of the increase in fluorescence within 10 sec after adding glutamate. GLUmaxmin is the difference in the minimum and maximum value in fluorescence signal reached in the 100 sec window after adding glutamate. Compounds were classified as hits if they differed by 3 standard deviations of the mean for each criterion. Tier 1 hits were classified as those that hit in the GLUslope, GLUmaxmin, and CMPDmaxmin windows. Tier 2 hits were classified as compounds that hit in the GLUslope window and either the GLUmaxmin or CMPDmaxmin window. Tier 3 hits were classified as those that hit in only the GLUslope or the GLUmaxmin window. Tier 4 hits were classified as compounds that hit only in the CMPD window, CMPDslope or CMPDmaxmin. Hit selection was further narrowed using the criterion that their signal must return to near baseline values before entering the glutamate add window.
VSD concentration response curves (CRCs): After the above counter-screens, compounds that remained positive were moved forward to collect complete CRCs for A2R-stg and A2R-C3 cell lines. This assay was carried out in the same way as the VSD screening assay except a 10-point concentration curve, from 40 μM to 10 nM, was plated in triplicate for each compound on a single 384-well plate. Data were summarized by plotting them as %max GLUslope against log [compound] that was fit to a four-parameter logistical model. %max GLUslope is defined as a normalized GLUslope expressed as a percentage of the mean maximum GLUslope, defined as 100, where background mean vehicle control (VHLslope) were subtracted from both values on a per plate basis. Thus, %max GLU slope = (GLUslope-mean VHLslope/mean maxGLUslope-mean VHLslope).

[2] = biological target: GluA2flip(Q)-CNIH3 (A2Q-C3 cells) (Homo sapiens, UniProt P42262); assay: Calcium flux (Fluo-8) compound CRC assay on A2Q-C3 cells
GluA2flip(Q)-CNIH3 (A2Q-C3 cells), sequence (P42262 25-883 isoform P42262-2 limits assumed): as the sequence (P42262 25-883 isoform P42262-2 Q607R limits assumed) above, with R583Q counted along it
GluA2flip(Q)-CNIH3 (A2Q-C3 cells), sequence (Q8TBE1 whole entry partner): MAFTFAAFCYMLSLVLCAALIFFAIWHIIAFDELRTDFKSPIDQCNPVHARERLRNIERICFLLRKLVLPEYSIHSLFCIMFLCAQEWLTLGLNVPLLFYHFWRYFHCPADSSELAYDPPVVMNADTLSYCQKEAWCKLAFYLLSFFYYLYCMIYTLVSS
Source text: (§2) Cell lines used in the calcium flux assay were GluA2flip(Q)-FLAG + GSG1L-1D4 pTREt-Va dual expression in TetON HEK cell clone #20 (A2Q-GSG), GluA2flip(Q)-FLAG + CNIH3-1D4 pTREt-Va dual expression in TetON HEK cell clone #8 (A2Q-C3), GluA2flip(Q)-FLAG pTREt-Va in TetON HEK cell clone #5 (A2Q), and tethered GluA2flip(Q)-FLAG-stargazin [28] in pTREt-Va dual expression in TetON HEK cell clone #13 (A2Q-stg) (Summarized in Table 1).
(§3) Compounds that were selected as hits using the VSD assay were subsequently screened against the calcium permeable A2Q-stg and A2Q-C3 cell lines in a glutamate potency fold-shift assay using the calcium sensing dye Fluo-8 (AAT Bioquest cat #21080). This assay is used to measure how pretreatment with compounds shifts the EC50 of glutamate on A2Q-stg and A2Q-C3 cells. 30 μM of each compound was pre-incubated with the cells for 120 secs and then an 11-point glutamate CRC from 4 mM to 10 pM was applied to the cells for 180 sec. […] Greiner 384-pp round-bottom plates containing glutamate solutions were dispensed by hand using a multi-channel pipet at 5X final concentration. […] Sodium butyrate and DOX were added to the cells at 1 mM and 5 μg/mL, respectively, 24 hours before screening. A2Q-stg cells were induced with 10 μg/mL DOX. Cells were incubated O/N and washed 4 times in low calcium buffer on an ELX405CW liquid aspirator and dispenser (BioTek). Buffer was left in the wells and an equal amount of 4.6 μM (2X) Fluo-8 (AAT Bioquest cat #21080) solution with 2.5 mM probenecid was added and incubated on the cells at room temperature for 40 minutes. Probenecid was added to block dye efflux from the cells [29]. Dye was washed off with low calcium buffer using the ELX405CW (BioTek) and plates were immediately inserted into the FDSS (Hamamatsu). Fluorescence signal was collected at 1 Hz using Ex. 480±20 nm/Em. 540±40 nm. Baseline signal was collected for 10 seconds followed by addition of 20 μl of 2X compound for a final concentration of 30 μM. After 290 seconds, 10 μl of a 5X glutamate solution in high calcium buffer (10 mM HEPES, pH 7.4, 140 mM NaCl, 5 mM KCl, 1 mM MgCl2, 9 mM CaCl2, and 10 mM glucose) was added for 180 seconds.
(§4) These compound CRCs were applied to the cells 2 minutes before a 1mM glutamate stimulation. […] Normalized FDSS traces were curve fit to CRCs using the initial GLUslope (GLUslope1) in a 3–6 sec window after glutamate application. CRCs were also plotted for the traces’ area under the curve (AUC) in the GLUmaxmin window. […] Compounds were plotted as %max GLUslope against log [compound] and fit to a four-parameter logistical model as in the VSD.
(§5) Cells were loaded with Fluo-8 and excess dye was washed out. After 120 secs of pre-incubation with compound at concentrations ranging from 30 μM to 30 nM (Fig 4Bi), 1 mM glutamate was added (Fig 4Bii). In the calcium assay, 250 μM was used as the maxGLU dose because the GLUslope1 values decreased at higher concentrations of glutamate, making it the dose with the maximal GLUslope1 response. […] We measured GLUslope in three consecutive time windows, referred to as GLUslope1-3, because three phases were clearly detectable (Fig 4C). The final CRC curves were calculated from GLUslope1, obtained from the first 3–6 sec window.
(§6) The final compound CRC curves were calculated from GLUslope1. […] The AUC measures the accumulation of calcium instead of gating and sometimes produced a CRC fit when GLUslope1 could not derive an EC50 value.

GluA2 alone = conditions: published value; cited from earlier work
GluA2flip(Q) (A2Q cells) = biological target: T1, GluA2flip(Q) (A2Q cells) (Homo sapiens, UniProt P42262); assay: Calcium flux (Fluo-8) compound CRC assay on A2Q cells; format: cell-based; conditions: CRC from GLUslope1; 1 mM glutamate; PAM; read-out: EC50 Ca2+ Sensing, A2Q
T1 construct: FLAG (C); expressed in transfected cells
T1 sequence (P42262 25-883 isoform P42262-2 limits assumed): as the sequence (P42262 25-883 isoform P42262-2 Q607R limits assumed) above, with R583Q counted along it

[3] = biological target: GluA2flip(Q)-GSG1L (A2Q-GSG cells) (Homo sapiens, UniProt P42262); assay: Calcium flux (Fluo-8) compound CRC assay on A2Q-GSG cells
GluA2flip(Q)-GSG1L (A2Q-GSG cells), sequence (P42262 25-883 isoform P42262-2 limits assumed): as the sequence (P42262 25-883 isoform P42262-2 Q607R limits assumed) above, with R583Q counted along it
GluA2flip(Q)-GSG1L (A2Q-GSG cells), sequence (Q6UXU4 whole entry partner): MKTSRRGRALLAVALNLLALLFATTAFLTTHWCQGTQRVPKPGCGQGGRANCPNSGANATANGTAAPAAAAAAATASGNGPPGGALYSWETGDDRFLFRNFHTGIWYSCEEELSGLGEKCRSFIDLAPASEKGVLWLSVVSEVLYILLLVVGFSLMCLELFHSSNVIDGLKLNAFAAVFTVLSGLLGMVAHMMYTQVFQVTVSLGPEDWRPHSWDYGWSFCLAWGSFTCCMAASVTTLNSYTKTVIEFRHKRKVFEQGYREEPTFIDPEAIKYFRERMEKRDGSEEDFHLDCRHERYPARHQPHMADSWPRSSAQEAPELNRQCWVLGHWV
Source text: as §2, §3, §4, §5, §6

GluA1-stargazin = test system: GluA1-stargazin; design: method as in PMID 16785437; conditions: published value; cited from earlier work
[4] = biological target: GluA2flip(R)-CNIH3 (A2R-C3 TetON HEK293 cells) (Homo sapiens, UniProt P42262, Q607R); assay: VSD assay (counter-screen, CRC) on A2R-C3 cells; conditions: for CMPDmaxmin: max-min 8-100 s; for BaselineReturn: max 250-255 s minus min 0-5 s; for Glumaxmin: max-min normalized value 301-380 s
GluA2flip(R)-CNIH3 (A2R-C3 TetON HEK293 cells), sequence (P42262 25-883 isoform P42262-2 Q607R limits assumed): as the sequence (P42262 25-883 isoform P42262-2 Q607R limits assumed) above
GluA2flip(R)-CNIH3 (A2R-C3 TetON HEK293 cells), sequence (Q8TBE1 whole entry partner): as the sequence (Q8TBE1 whole entry partner) above
Source text: Cell lines used in the VSD assays were TetON HEK293 cells. This was the parental cell line for all stable cell lines created. We used GluA2flip(R) TetON HEK cell clone #4 that doxycycline (DOX) dependently expresses GluA2flip(R) (A2R). The A2R cells were used as the base cell line to derive cell lines that co-express auxiliary subunits.
as §1
This assay was carried out in the same way as the VSD screening assay except a 10-point concentration curve, from 40 μM to 10 nM, was plated in triplicate for each compound on a single 384-well plate. Data were summarized by plotting them as %max GLUslope against log [compound] that was fit to a four-parameter logistical model. %max GLUslope is defined as a normalized GLUslope expressed as a percentage of the mean maximum GLUslope, defined as 100, where background mean vehicle control (VHLslope) were subtracted from both values on a per plate basis. Thus, %max GLU slope = (GLUslope-mean VHLslope/mean maxGLUslope-mean VHLslope).

EC50 [1]: 900 nM | Glumaxmin ([1]; 7.8125e-6 M): 0.1527 and 0.1804 and 0.2045 and 0.2207 | Glumaxmin ([1]; 1.5625e-5 M): 0.2558 and 0.3432 and 0.3162 and 0.3337 | activity at 250 µM ([1]; HEK293, read-out: AVE %MAXCMPDslope, 0.00025 M, average of wells): 28.2% | activity at 500 µM ([1]; HEK293, read-out: AVE %MAXCMPDslope, 0.0005 M, average of wells): 27.5% | activity at […] ([1]; HEK293, read-out: AVE %MAXCMPDslope, […], average of wells): 29% | activity at 250 µM ([1]; HEK293, read-out: AVE %MAXslope, 0.00025 M, average of wells): 71.3% | activity at 500 µM ([1]; HEK293, read-out: AVE %MAXslope, 0.0005 M, average of wells): 65.9% | activity at […] ([1]; HEK293, read-out: AVE %MAXslope, […], average of wells): 68.4% | activity at 250 µM ([1]; HEK293, read-out: pctMAX, 0.00025 M, Glumaxmin as percentage MAX (vhl and glutamate controls)): 55.4% | activity at […] ([1]; HEK293, read-out: pctMAX, […], Glumaxmin as percentage MAX (vhl and glutamate controls)): 44.5% | activity at 250 µM ([1]; HEK293, read-out: pctMAXslope, 0.00025 M, GluSlope as percentage MAX): 67.4% | activity at […] ([1]; HEK293, read-out: pctMAXslope, […], GluSlope as percentage MAX): 64.2% | activity at 250 µM ([1]; HEK293, read-out: pctMAXslopeCMPD, 0.00025 M, CMPDSlope as percentage MAX): 27.7% | activity at 500 µM ([1]; HEK293, read-out: pctMAXslopeCMPD, 0.0005 M, CMPDSlope as percentage MAX): 26.2% | activity at […] ([1]; HEK293, read-out: pctMAXslopeCMPD, […], CMPDSlope as percentage MAX): 28.9% | EC50 [2]: 400 nM | EC50 (GluA2flip(Q) (A2Q cells)): 1900 nM | EC50 [3]: 1600 nM | EC50 [4]: 800 nM | BaselineReturn ([4]; 7.8125e-6 M ligand, per well): 0.02655 and 0.02476 | CMPDmaxmin ([4]; 7.8125e-6 M ligand, compound only, per well): 0.03133 and 0.03273 | Glumaxmin ([4]; 7.8125e-6 M ligand, compound+glutamate, per well): 0.1051 and 0.1531 | GluSlope ([4]; 7.8125e-6 M ligand, slope of normalized value 310-315 s, compound+glutamate, per well): 1.084e-5 and 1.388e-5 | Glumaxmin ([4]; 7.8125e-6 M, compound and glutamate present, per well): 0.1519 and 0.1861 and 0.161 and 0.1533 | Glumaxmin ([4]; 1.5625e-5 M, compound and glutamate present, per well): 0.222 and 0.2669 and 0.2275 | activity at 250 µM ([4]; HEK293, read-out: AVE %MAXCMPDslope, 0.00025 M, average for the concentration): 20.3% | activity at 500 µM ([4]; HEK293, read-out: AVE %MAXCMPDslope, 0.0005 M, average for the concentration): 20.7% | activity at […] ([4]; HEK293, read-out: AVE %MAXCMPDslope, […], average for the concentration): 19.2% | activity at 250 µM ([4]; HEK293, read-out: AVE %MAXslope, 0.00025 M, average for the concentration): 68.1% | activity at […] ([4]; HEK293, read-out: AVE %MAXslope, […], average for the concentration): 63.8% | activity at 500 µM ([4]; HEK293, read-out: pctMAX, 0.0005 M, Glumaxmin vs vhl and glutamate controls, per well): 57.7% | activity at 500 µM ([4]; HEK293, read-out: pctMAXslope, 0.0005 M, GluSlope vs vhl and glutamate controls, per well): 67.5% | activity at 250 µM ([4]; HEK293, read-out: pctMAXslopeCMPD, 0.00025 M, CMPDSlope vs vhl and glutamate controls, per well): 18.6% | activity at 500 µM ([4]; HEK293, read-out: pctMAXslopeCMPD, 0.0005 M, CMPDSlope vs vhl and glutamate controls, per well): 18.6% | activity at […] ([4]; HEK293, read-out: pctMAXslopeCMPD, […], CMPDSlope vs vhl and glutamate controls, per well): 19.3%
Structure (SMILES): NS(=O)(=O)c1cc2c(cc1Cl)NC(C1CC3C=CC1C3)NS2(=O)=O (stereo not shown) [CTZ, cyclothiazide]
CMPDmaxmin ([1]; 1.95313e-6 M): 0.01995 and 0.02197 and 0.02343 and 0.0204 and 0.02099 | BaselineReturn ([1]; 3.90625e-6 M): 0.01694 and 0.02593 and 0.02261 and 0.02289 and 0.01533 and 0.01439 | CMPDmaxmin ([1]; 3.90625e-6 M): 0.02654 and 0.02518 and 0.0211 and 0.01857 | BaselineReturn ([1]; 7.8125e-6 M): 0.02783 and 0.02662 and 0.0353 and 0.03259 and 0.02886 and 0.02588 | CMPDmaxmin ([1]; 7.8125e-6 M): 0.0268 and 0.03115 and 0.03117 and 0.04146 and 0.02344 and 0.0309 | GluSlope ([1]; 7.8125e-6 M): 1.356e-5 and 1.3e-5 and 1.265e-5 and 1.674e-5 and 1.689e-5 and 1.461e-5 | CMPDmaxmin ([1]; 1.5625e-5 M): 0.03354 and 0.03952 and 0.05587 and 0.04086 and 0.03876 and 0.03573 | GluSlope ([1]; 1.5625e-5 M): 1.634e-5 and 1.622e-5 and 1.53e-5 and 2.233e-5 and 2.059e-5 and 2.204e-5 | BaselineReturn ([1]; 3.125e-5 M): 0.0693 and 0.04071 and 0.04552 and 0.04058 and 0.03606 and 0.0477 | CMPDmaxmin ([1]; 3.125e-5 M): 0.05834 and 0.04067 and 0.04238 and 0.04539 and 0.03379 and 0.04106 | Glumaxmin ([1]; 3.125e-5 M): 0.4026 and 0.4044 and 0.3672 and 0.4286 and 0.4072 | CMPDmaxmin ([1]; 6.25e-5 M): 0.04424 and 0.05275 and 0.04401 and 0.03573 and 0.03351 and 0.03343 | Glumaxmin ([1]; 6.25e-5 M): 0.4053 and 0.4064 and 0.4608 and 0.469 and 0.4686 and 0.4908 | GluSlope ([1]; 6.25e-5 M): 1.974e-5 and 2.267e-5 and 2.556e-5 and 2.473e-5 and 2.4778e-5 and 2.559e-5 | CMPDmaxmin ([1]; 0.00025 M): 0.0338 and 0.0291 and 0.02948 and 0.02774 and 0.02398 and 0.02262 | Glumaxmin ([1]; 0.00025 M): 0.4981 and 0.5117 and 0.5708 and 0.5208 and 0.5482 and 0.5112 | GluSlope ([1]; 0.00025 M): 2.302e-5 and 2.432e-5 and 2.511e-5 and 2.509e-5 and 2.863e-5 and 2.554e-5 | CMPDmaxmin ([1]; 0.0005 M): 0.04815 and 0.05143 and 0.02949 and 0.04218 and 0.05076 and 0.0521 | Glumaxmin ([1]; 0.0005 M): 0.4797 and 0.5039 and 0.3566 and 0.5216 and 0.4987 and 0.5435 | GluSlope ([1]; 0.0005 M): 2.0723e-5 and 2.479e-5 and 1.376e-5 and 2.232e-5 and 2.492e-5 and 2.656e-5 | EC50 (GluA2 alone): 2200 nM | EC50 (GluA1-stargazin): 2000 nM | CMPDmaxmin ([4]; 1.95313e-6 M ligand, compound only, per well): 0.02498 and 0.01841 and 0.01791 and 0.02774 | CMPDmaxmin ([4]; 3.90625e-6 M ligand, compound only, per well): 0.02327 and 0.02311 and 0.02554 and 0.02077 | GluSlope ([4]; 3.90625e-6 M ligand, slope of normalized value 310-315 s, compound+glutamate, per well): 3.655e-6 and 4.544e-6 and 4.211e-6 and 5.143e-6 and 7.279e-6 and 5.643e-6 | BaselineReturn ([4]; 7.8125e-6 M, per well): 0.01945 and 0.0284 and 0.03375 and 0.02763 | CMPDmaxmin ([4]; 7.8125e-6 M, only compound present, per well): 0.02499 and 0.03299 and 0.03909 and 0.04405 | GluSlope ([4]; 7.8125e-6 M, slope 310-315 s, compound and glutamate present, per well): 1.427e-5 and 1.51e-5 and 1.46e-5 and 1.177e-5 | BaselineReturn ([4]; 1.5625e-5 M, per well): 0.04439 and 0.04696 and 0.04628 and 0.04829 and 0.04336 and 0.0478 | CMPDmaxmin ([4]; 1.5625e-5 M, only compound present, per well): 0.04028 and 0.05159 and 0.051 and 0.04736 and 0.04942 and 0.04289 | GluSlope ([4]; 1.5625e-5 M, slope 310-315 s, compound and glutamate present, per well): 1.982e-5 and 1.758e-5 and 1.735e-5 and 2.35e-5 and 2.196e-5 and 2.323e-5 | Glumaxmin ([4]; 3.125e-5 M, compound and glutamate present, per well): 0.3443 and 0.3512 and 0.3188 and 0.318 and 0.3671 | GluSlope ([4]; 3.125e-5 M, slope 310-315 s, compound and glutamate present, per well): 2.5659e-5 and 2.5089e-5 and 2.398e-5 and 2.252e-5 and 2.824e-5 and 2.481e-5 | BaselineReturn ([4]; 6.25e-5 M, per well): 0.06773 and 0.07885 and 0.0633 and 0.06912 and 0.08153 and 0.08744 | CMPDmaxmin ([4]; 6.25e-5 M, only compound present, per well): 0.07201 and 0.07489 and 0.07237 and 0.06864 and 0.0824 and 0.08958 | Glumaxmin ([4]; 6.25e-5 M, compound and glutamate present, per well): 0.3694 and 0.3861 and 0.381 and 0.3994 and 0.4282 and 0.4362 | GluSlope ([4]; 6.25e-5 M, slope 310-315 s, compound and glutamate present, per well): 2.565e-5 and 2.689e-5 and 2.837e-5 and 2.784e-5 and 3.091e-5 and 2.855e-5 | CMPDmaxmin ([4]; 0.00025 M, only compound present, per well): 0.06294 and 0.04965 and 0.05528 and 0.07959 and 0.04247 and 0.05305 | Glumaxmin ([4]; 0.0005 M, compound and glutamate present, per well): 0.4488 and 0.457 and 0.483 and 0.5352 and 0.5162 and 0.5252 | GluSlope ([4]; 0.0005 M, slope 310-315 s, compound and glutamate present, per well): 2.6241e-5 and 2.3366e-5 and 3.012e-5 and 2.914e-5 and 2.692e-5 and 2.648e-5
